Like-named read-outs stand apart in the source and are kept apart here.
Experiments:
Assay type in all cases: cell-based
[1] = test system: A. baumannii PT 9444 PTZ-R; assay: MIC microbroth dilution; β-lactamase class not determined
Summary of the method: (§1)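 Antibiotic activity was measured in vitro by microbroth dilution following NCCLS guidance. Mueller-Hinton II broth served as the test medium, and plates were kept in ambient air at 35° C. for 18-22 hours.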

[2] = test system: E. coli GC 2295 TEM-1 + AmpC; assay: MIC microbroth dilution; β-lactamase class A, C
Summary of the method: as §1

[3] = test system: A. baumannii GC 7692 TEM-1, AmpC; assay: MIC microbroth dilution; β-lactamase class A, C
Summary of the method: as §1

[4] = test system: K. pneumoniae GC 7636 TEM-1 KPC-2 SHV-12; assay: MIC microbroth dilution; β-lactamase class A, A (Cb'ase), A (ESBL)
Summary of the method: as §1

[5] = test system: E. coli GC 2009 (TEM-10); assay: MIC microbroth dilution; β-lactamase class A (ESBL)
Summary of the method: as §1

[6] = test system: S. typhimurium GC 4198 SHV-1 CTX-M-5; assay: MIC microbroth dilution; β-lactamase class A, A (ESBL)
Summary of the method: as §1

[7] = test system: K. pneumoniae GC 7645 TEM-30 TEM-1 KPC-2 SHV-12; assay: MIC microbroth dilution; β-lactamase class A, A (Cb'ase), A (ESBL), A(IRT)
Procedure: (§2) The in vitro activities of the antibiotics were determined by the microbroth dilution method as recommended by the National Committee for Clinical Laboratory Standards (NCCLS). (NCCLS. 2000. Methods for Dilution Antimicrobial Susceptibility Tests for Bacteria That Grow Aerobically; Approved Standards: M7-A5, vol. 19. National Committee for Clinical Laboratory Standards, Villanova, Pa.). Mueller-Hinton II broth (MHBII)(BBL Cockeysville, Md.), was used for the testing procedure. […]. The plates were incubated for 18-22 hours at 35° C. in ambient air.

[8] = test system: E. coli ATCC 35218 TEM-1; assay: MIC microbroth dilution; β-lactamase class A
Summary of the method: as §1

[9] = test system: A. baumannii GC 7685 TEM-1; assay: MIC microbroth dilution; β-lactamase class A
Summary of the method: as §1

[10] = test system: E. coli GC 2805 (CcrA); assay: MIC microbroth dilution; β-lactamase class B
Summary of the method: as §1

[11] = test system: P. aeruginosa ATCC 27853 AmpC-inducable; assay: MIC microbroth dilution; β-lactamase class C
Summary of the method: (§3)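 Broth microdilution per NCCLS M7-A5 in Mueller-Hinton II broth; plates held 18-22 hours at 35° C. in ambient air before MICs were read.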

[12] = test system: E. coli GC 2894 (AmpC); assay: MIC microbroth dilution; β-lactamase class C; conditions: Escherichia coli, Cefepime alone, read-out: MIC
Summary of the method: as §3

[13] = test system: K. pneumoniae GC 7821 DHA 1; assay: MIC microbroth dilution; β-lactamase class C; conditions: Klebsiella pneumoniae, GC7821DHA1, K. pneumoniae GC 7821, Cefepime alone, read-out: MIC
Summary of the method: as §3

[14] = test system: E. cloacae GC 6991 (AmpC); assay: MIC microbroth dilution; β-lactamase class C; conditions: Enterobacter cloacae, Cefepime alone, read-out: MIC
Summary of the method: as §3

[15] = test system: K. pneumoniae GC 7820 Act 1; assay: MIC microbroth dilution; β-lactamase class C; conditions: Klebsiella pneumoniae, GC7820ACT1, K. pneumoniae GC 7820, Cefepime alone, read-out: MIC
Summary of the method: as §3

[16] = test system: S. marcescens GC 4145 Inducible AmpC; assay: MIC microbroth dilution; β-lactamase class C; conditions: Serratia marcescens, Cefepime alone, read-out: MIC
Summary of the method: as §3

[17] = test system: A. baumannii GC 7687 AmpC; assay: MIC microbroth dilution; β-lactamase class C; conditions: Cefepime alone
Summary of the method: as §3

[18] = test system: E. cloacae PT 1494 Inducible AmpC; assay: MIC microbroth dilution; β-lactamase class C; conditions: Cefepime alone
Summary of the method: as §3

[19] = test system: K. pneumoniae GC 7822 Act 1; assay: MIC microbroth dilution; β-lactamase class C
Summary of the method: as §3

[20] = test system: C. freundii GC 4164 Inducible AmpC; assay: MIC microbroth dilution; β-lactamase class C; conditions: Cefepime alone
Summary of the method: as §3

[21] = test system: P. aeruginosa GC 1764 (AmpC); assay: MIC microbroth dilution; β-lactamase class C; conditions: Cefepime alone
Summary of the method: as §3

[22] = test system: E. cloacae GC 4142 (AmpC); assay: MIC microbroth dilution; β-lactamase class C; conditions: Enterobacter cloacae, Cefepime alone, read-out: MIC
Summary of the method: as §3

[23] = test system: E. cloacae PT 967 Inducible AmpC; assay: MIC microbroth dilution; β-lactamase class C; conditions: Cefepime alone
Summary of the method: as §3

[24] = test system: E. coli GC 6539 CMY-2; assay: MIC microbroth dilution; β-lactamase class C
Summary of the method: as §3

[25] = test system: E. cloacae GC 1712 AmpC-inducible; assay: MIC microbroth dilution; β-lactamase class C; conditions: Cefepime alone
Summary of the method: as §3

[26] = test system: K. pneumoniae GC 7824 Fox 5; assay: MIC microbroth dilution; β-lactamase class C
Summary of the method: as §3

[27] = test system: K. pneumoniae GC 7823 Fox 5; assay: MIC microbroth dilution; β-lactamase class C; conditions: Klebsiella pneumoniae, GC7823FOX5, K. pneumoniae GC 7823, Cefepime alone, read-out: MIC
Summary of the method: as §3

[28] = test system: K. oxytoca GC 7627 TEM-1 K1 KPC-2; assay: MIC microbroth dilution; β-lactamase class A, A (Cb'ase)
Summary of the method: as §1

[29] = test system: P. aeruginosa PT 8503 PTZ-R; assay: MIC microbroth dilution; conditions: Cefepime alone
Procedure: as §2

[30] = test system: P. aeruginosa PT 9236 PTZ-R; assay: MIC microbroth dilution; conditions: Cefepime alone
Procedure: as §2

[31] = test system: P. aeruginosa PT 8411 PTZ-R; assay: MIC microbroth dilution; conditions: Cefepime alone
Procedure: as §2

[32] = test system: P. aeruginosa PT 9587 PTZ-R; assay: MIC microbroth dilution; conditions: Cefepime alone
Procedure: as §2

[33] = Cefepime alone, control of Compound 2 test
[34] = Enterobacter cloacae, control of Compound 1 test, read-out: MIC

Measured: MIC

CO/N=C(\C(=O)N[C@@H]1C(=O)N2C(C(=O)[O-])=C(C[N+]3(C)CCCC3)CS[C@H]12)c1csc(N)n1 [Cefepime, reference compound]
4 µg/mL: [12]; control of Compound 2 test | [32]; control of Compound 2 test | [32]; Pseudomonas aeruginosa, PT9587PTZR, control of Compound 1 test, read-out: MIC
0.03 µg/mL: [8]; E. coli ATCC 35218, Cefepime alone, control of Compound 2 test | [8]; Escherichia coli, ATCC35218
0.5 µg/mL: [2]; Escherichia coli | [14]; control of Compound 1 test | [15]; control of Compound 2 test | [16]; control of Compound 2 test | [27]; control of Compound 1 test
0.12 µg/mL: [23]; control of Compound 2 test | [23]; [34] | [25]; control of Compound 2 test | [25]; [34]
1 µg/mL: [14]; control of Compound 2 test | [16]; control of Compound 1 test | [20]; control of Compound 2 test | [20]; Citrobacter freundii, control of Compound 1 test, read-out: MIC | [27]; control of Compound 2 test
>16 µg/mL: [1]; A. baumannii PT 9444, Cefepime alone, control of Compound 2 test | [3]; A. baumannii GC 7692, Cefepime alone, control of Compound 2 test | [4]; K. pneumoniae GC 7636, Cefepime alone, control of Compound 2 test | [5]; E. coli GC 2009, Cefepime alone, control of Compound 2 test | [6]; S. typhimurium GC 4198, Cefepime alone, control of Compound 2 test | [7]; K. pneumoniae GC 7645, Cefepime alone, control of Compound 2 test | [9]; A. baumannii GC 7685, Cefepime alone, control of Compound 2 test | [10]; E. coli GC 2805, Cefepime alone, control of Compound 2 test | [19]; [33] | [28]; K. oxytoca GC 7627, Cefepime alone, control of Compound 2 test | [30]; control of Compound 2 test
16 µg/mL: [17]; Acinetobacter baumannii, GC7687AMPC, control of Compound 1 test, read-out: MIC | [17]; control of Compound 2 test | [31]; control of Compound 2 test | [31]; Pseudomonas aeruginosa, PT8411PTZR, control of Compound 1 test, read-out: MIC
0.06 µg/mL: [13]; control of Compound 2 test
2 µg/mL: [11]; [33] | [11]; Pseudomonas aeruginosa, ATCC27853, Cefepime alone, control of Compound 1 test, read-out: MIC | [12]; control of Compound 1 test | [24]; [33] | [24]; Escherichia coli, GC6539CMY2, Cefepime alone, control of Compound 1 test, read-out: MIC | [26]; [33] | [26]; Klebsiella pneumoniae, GC7824FOX5, Cefepime alone, control of Compound 1 test, read-out: MIC
8 µg/mL: [21]; control of Compound 2 test | [21]; Pseudomonas aeruginosa, control of Compound 1 test, read-out: MIC | [22]; control of Compound 2 test | [29]; control of Compound 2 test | [29]; Pseudomonas aeruginosa, PT8503PTZR, control of Compound 1 test, read-out: MIC
> 16 µg/mL: [1]; Acinetobacter baumannii, PT9444PTZR | [3]; Acinetobacter baumannii | [4]; Klebsiella pneumoniae | [5]; Escherichia coli | [6]; Salmonella enterica, TYPHIMURIUM | [7]; Klebsiella pneumoniae | [9]; Acinetobacter baumannii, GC7685TEM1 | [10]; Escherichia coli | [19]; Klebsiella pneumoniae, GC7822ACT1, Cefepime alone, control of Compound 1 test, read-out: MIC | [22]; control of Compound 1 test | [28]; Klebsiella oxytoca | [30]; Pseudomonas aeruginosa, PT9236PTZR, control of Compound 1 test, read-out: MIC
0.25 µg/mL: [13]; control of Compound 1 test | [15]; control of Compound 1 test | [18]; control of Compound 2 test | [18]; [34]
0.50 µg/mL: [2]; E. coli GC 2295, Cefepime alone, control of Compound 2 test

— US20070129344A1, “Bicyclic 6-alkylidene-penem beta-lactamase inhibitors and beta-lactam antibiotic combination: a broad spectrum antibiotic” (priority 2005, published 2007)
